Values of other authors, collected in US20070243268A1, “Compositions for regulating intestinal disorders and methods of use thereof” (priority 2005, published 2007).

System: prostate cancer
Settings: 970 men, 200 mcg selenium daily (as selenium-enriched yeast) for 4.5 years

[Se] [selenium]
reduction in the incidence of prostate cancer: 63%
